# Laboratory results as given in patent US5516790A, “Synthesis and application of alkyl-substituted dibenzofurans as antitumorigenic agents” (Texas A&M University System Technology Licensing Office, priority 1994, dated 1996).
# What was measured:
# Format in all cases: cell-based, human
# [1] = tested on: 34-kDa protein;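 as to Secreted 34-kDa protein: MCF-7 human breast cancer cells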
# Protocol: (§1) On day 0, the media was removed and the cells were rinsed two times with PBS. […] The cells were allowed to incubate for 48 h. […] After 6 h, the media was removed, 10 μl was counted and the remaining media was used for analysis of secreted proteins.
# (§2) The secreted proteins were analyzed by sodium dodecyl sulfate (SDS) polyacrylamide gel electrophoresis; 30 μl of the media was mixed with an equal volume of buffer containing SDS, β-mercaptoethanol, glycerol, Tris and bromophenol blue. The samples were heated for 2 minutes in a boiling water bath and 50 μl of each sample was loaded onto a 1.5 mm thick 12% acrylamide slab gel (containing 0.075% bisacrylamide) with a 3% stacking gel (containing 0.15% bisacrylamide). The gels were run at […] overnight and processed for fluorography (using Enhance: Dupont) and exposed to Kodak X-OMAT film for 10 days at -80° C. The molecular weights of the proteins were estimated by their mobility relative to a set of standard proteins with known molecular weights.
# (§3) The incorporation of ^35 S-methionine into the 34-kDa, 52-kDa and 160-kDa proteins was estimated by scanning the films using a Zeineh Soft Laser Scanning Densitometer (model SLR-20/10) from Biomedical Instruments,Inc. The percentage of the area of the scans due to the particular protein was then compared between the experimental and control samples and the results are presented as means ± SD for at least three samples per treatment group.
# [2] = tested on: 160-kDa protein;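 as to Secreted 160-kDa protein: MCF-7 human breast cancer cells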
# Protocol: as §1, §2, §3
# [3] = tested on: 52-kDa protein; conditions: mcf-7 cells, 48 h, 0.001 µM
# Protocol: as §1, §2, §3
# [4] = 17β-estradiol alone, 1 nM, 2880 min
# [5] = Table 9, 17β-estradiol alone (1 nM), 2880 min
smiles,measurement,setting,value
C[C@]12CC[C@@H]3c4ccc(O)cc4CC[C@H]3[C@@H]1CC[C@@H]2O [17β-Estradiol],Secreted 34-kDa protein,[1]; [4],282 ± 17.6% of the values for control
same,"Protein Secretion, 34-kDa",[1]; [5],201 % of Control
same,increase in secretion of the 34-kDa protein,"[1]; mcf-7 cells, 48 h, 0.001 µM",3.72 fold
same,Secreted 160-kDa protein,[2]; [4],371 ± 27.1% of the values for control
same,"Protein Secretion, 160-kDa",[2]; [5],228 % of Control
same,increase in secretion of the 160-kDa protein,"[2]; mcf-7 cells, 48 h, 0.001 µM",3.81 fold
same,increase in secretion of the 52-kDa protein,[3],4.97 fold
